Measured values as given in ChEMBL document CHEMBL1201862, “PubChem BioAssay data set” (2004).
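96-well plates; 48 h exposure; 5 concentrations. Endpoints by linear interpolation between flanking doses. Not reached: highest tested concentration assigned. Abbreviation: GI50, concentration required for 50% inhibition of growth.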 Calls of active or inactive are those of the source. No stated cut-off is given here; in the data, active = GI50 up to about 1.1 µM and inactive = higher.

Key:
Assay in all cases: NCI-60 cell line screen, 48 h
[1] = test system: OVCAR-4
[2] = test system: BT-549
[3] = test system: NCI-H23
[4] = test system: CCRF-CEM
[5] = test system: SN12C
[6] = test system: RPMI-8226
[7] = test system: UACC-62
[8] = test system: OVCAR-8
[9] = test system: ACHN
[10] = test system: SF-268
[11] = test system: HT-29
[12] = test system: NCI-H522
[13] = test system: SK-MEL-5
[14] = test system: IGROV-1
[15] = test system: CAKI-1
[16] = test system: A549
[17] = test system: KM12
[18] = test system: Malme-3M
[19] = test system: SR
[20] = test system: T47D

| Compound | GI50 [1] | GI50 [2] | GI50 [3] | GI50 [4] | GI50 [5] | GI50 [6] | GI50 [7] | GI50 [8] | GI50 [9] | GI50 [10] | GI50 [11] | GI50 [12] | GI50 [13] | GI50 [14] | GI50 [15] | GI50 [16] | GI50 [17] | GI50 [18] | GI50 [19] | GI50 [20] |
| --- | --- | --- | --- | --- | --- | --- | --- | --- | --- | --- | --- | --- | --- | --- | --- | --- | --- | --- | --- | --- |
| Brc1ccccc2cc(-c3ccccc3)nc1-2 | 2.9 µM (inactive) | 19.3 µM (inactive) | 3.26 µM (inactive) | 2.47 µM (inactive) | 1.87 µM (inactive) | 2.44 µM (inactive) | 2.53 µM (inactive) | 2.27 µM (inactive) | 3.37 µM (inactive) | 4.85 µM (inactive) | 4.5 µM (inactive) | 2.86 µM (inactive) | 6.55 µM (inactive) | 9.12 µM (inactive) | 5.05 µM (inactive) | 14.7 µM (inactive) | 5.97 µM (inactive) | 3.01 µM (inactive) | – | – |
| Cc1c(Cl)c(=O)oc2cc(OCC(O)COC(C)C)ccc12 (centres undefined) | 38.9 µM (inactive) | – | > 100 µM (inactive) | 34.3 µM (inactive) | – | 50.6 µM (inactive) | 74.6 µM (inactive) | 33.7 µM (inactive) | 44.1 µM (inactive) | 97.1 µM (inactive) | 40.2 µM (inactive) | > 100 µM (inactive) | 19.8 µM (inactive) | 65.8 µM (inactive) | > 10 µM (inactive) | 42.2 µM (inactive) | 50.5 µM (inactive) | 20 µM (inactive) | 31.9 µM (inactive) | 69.7 µM (inactive) |
| CC(C)(C)OC(=O)CC(NC(=O)OC(C)(C)C)C(=O)N[C@@H]1CCCC[C@H]1C(=O)OCc1ccccc1 (some centres undefined) | 45.2 µM (inactive) | – | 29.3 µM (inactive) | 20.8 µM (inactive) | 18.2 µM (inactive) | 20.5 µM (inactive) | 16.2 µM (inactive) | 28.8 µM (inactive) | 32.7 µM (inactive) | 77.3 µM (inactive) | 17.2 µM (inactive) | > 10 µM (inactive) | 12.1 µM (inactive) | 37 µM (inactive) | 38.4 µM (inactive) | 25.2 µM (inactive) | 30.1 µM (inactive) | 33.7 µM (inactive) | 29.2 µM (inactive) | 22.3 µM (inactive) |
| CC(C)CC(=O)NS(=O)(=O)c1ccccc1 | > 100 µM (inactive) | – | > 100 µM (inactive) | > 100 µM (inactive) | > 100 µM (inactive) | > 100 µM (inactive) | > 100 µM (inactive) | > 100 µM (inactive) | > 100 µM (inactive) | > 100 µM (inactive) | > 100 µM (inactive) | > 100 µM (inactive) | – | > 100 µM (inactive) | > 100 µM (inactive) | > 100 µM (inactive) | > 100 µM (inactive) | > 100 µM (inactive) | > 100 µM (inactive) | – |
| c1cc2c(cc1[C@@H]1OC[C@@H]3[C@H]1CO[C@H]3c1ccc3c(c1)OCO3)OCO2 | > 100 µM (inactive) | – | 65.9 µM (inactive) | 44.8 µM (inactive) | > 100 µM (inactive) | 46.3 µM (inactive) | > 100 µM (inactive) | > 100 µM (inactive) | > 100 µM (inactive) | > 100 µM (inactive) | 60.8 µM (inactive) | > 100 µM (inactive) | 16 µM (inactive) | 87.1 µM (inactive) | 30.1 µM (inactive) | 62.2 µM (inactive) | 23.1 µM (inactive) | 53.3 µM (inactive) | – | 46.3 µM (inactive) |
| N=C(N)NCCCC(Nc1c2ccccc2nc2ccccc12)C(=O)O (centres undefined) | 3.51 µM (inactive) | – | > 100 µM (inactive) | > 100 µM (inactive) | > 100 µM (inactive) | 33.1 µM (inactive) | – | > 100 µM (inactive) | > 100 µM (inactive) | > 100 µM (inactive) | > 100 µM (inactive) | 44 µM (inactive) | – | – | > 100 µM (inactive) | > 100 µM (inactive) | > 100 µM (inactive) | > 100 µM (inactive) | > 100 µM (inactive) | – |
| CCOc1cc[n+]([C-](C#N)C#N)cc1 | > 100 µM (inactive) | – | > 100 µM (inactive) | > 100 µM (inactive) | > 100 µM (inactive) | > 100 µM (inactive) | > 100 µM (inactive) | > 100 µM (inactive) | – | > 100 µM (inactive) | > 100 µM (inactive) | > 100 µM (inactive) | > 100 µM (inactive) | > 100 µM (inactive) | > 100 µM (inactive) | > 100 µM (inactive) | > 100 µM (inactive) | > 100 µM (inactive) | > 100 µM (inactive) | – |
| O=C(NNc1ccccc1)/C(=C/c1ccc2c(c1)OCO2)NC(=O)c1ccccc1 | 66.2 µM (inactive) | – | > 100 µM (inactive) | 31 µM (inactive) | > 100 µM (inactive) | 52.2 µM (inactive) | > 100 µM (inactive) | > 100 µM (inactive) | > 100 µM (inactive) | > 100 µM (inactive) | > 100 µM (inactive) | 33.3 µM (inactive) | > 100 µM (inactive) | > 100 µM (inactive) | > 100 µM (inactive) | > 100 µM (inactive) | > 100 µM (inactive) | > 100 µM (inactive) | 32.2 µM (inactive) | – |
| CC(C)[C@]12O[C@H]1[C@@H]1O[C@@]13[C@@]1(C)CCC4=C(COC4=O)[C@@H]1C[C@@H]1O[C@@]13C2=O [TRIPTONIDE] | < 0.01 µM (active) | – | < 0.01 µM (active) | 0.063 µM (active) | < 0.0172 µM (active) | < 0.01 µM (active) | 0.0122 µM (active) | 0.0339 µM (active) | < 0.01 µM (active) | 0.0229 µM (active) | < 0.01 µM (active) | < 0.0186 µM (active) | 0.0141 µM (active) | < 0.01 µM (active) | – | 0.0384 µM (active) | 0.824 µM (active) | 0.0191 µM (active) | < 0.01 µM (active) | 0.0238 µM (active) |
| Oc1nnc(-c2ccc(F)cc2)cc1-c1ccccc1 | 38 µM (inactive) | – | > 100 µM (inactive) | > 100 µM (inactive) | > 100 µM (inactive) | 75 µM (inactive) | 76.2 µM (inactive) | 50.4 µM (inactive) | 57.9 µM (inactive) | 46.1 µM (inactive) | > 100 µM (inactive) | – | > 100 µM (inactive) | 72.8 µM (inactive) | 69.5 µM (inactive) | > 100 µM (inactive) | > 100 µM (inactive) | 97.5 µM (inactive) | > 100 µM (inactive) | 44.2 µM (inactive) |
| O=C(Cc1ccccc1)NN1C(=O)C(Cl)C1c1cccc([N+](=O)[O-])c1 (centres undefined) | 29.8 µM (inactive) | – | 26.4 µM (inactive) | 2.33 µM (inactive) | 38.8 µM (inactive) | 16.6 µM (inactive) | 31.3 µM (inactive) | 27.9 µM (inactive) | > 60.5 µM (inactive) | 44.7 µM (inactive) | 3.68 µM (inactive) | 1.91 µM (inactive) | 39.9 µM (inactive) | 4.18 µM (inactive) | 38.5 µM (inactive) | > 100 µM (inactive) | > 90.4 µM (inactive) | > 78.5 µM (inactive) | 3.06 µM (inactive) | – |
| CCN(CC)CCN1C(=O)c2c(c(-c3ccccc3)c3ccccc3c2-c2ccccc2)C1=O | > 100 µM (inactive) | > 100 µM (inactive) | – | > 100 µM (inactive) | > 100 µM (inactive) | > 100 µM (inactive) | > 100 µM (inactive) | > 100 µM (inactive) | > 100 µM (inactive) | > 100 µM (inactive) | > 100 µM (inactive) | > 100 µM (inactive) | > 100 µM (inactive) | > 100 µM (inactive) | > 100 µM (inactive) | > 100 µM (inactive) | > 100 µM (inactive) | > 100 µM (inactive) | – | – |
| CSc1nc(-c2cc3c(c(SC)n2)CCC3)cc2c1CCC2 | > 100 µM (inactive) | > 100 µM (inactive) | > 100 µM (inactive) | > 100 µM (inactive) | > 100 µM (inactive) | > 100 µM (inactive) | > 100 µM (inactive) | > 100 µM (inactive) | > 100 µM (inactive) | > 100 µM (inactive) | > 100 µM (inactive) | > 100 µM (inactive) | > 100 µM (inactive) | – | > 100 µM (inactive) | > 100 µM (inactive) | > 100 µM (inactive) | – | – | – |
| Cc1ccc(N(C(=O)CC(=O)N2N=C(c3ccccc3)C(/N=N/c3ccc([N+](=O)[O-])cc3)C2=O)C(=O)c2ccc(Cl)cc2)cc1 (centres undefined) | 36.1 µM (inactive) | – | 5.98 µM (inactive) | 5.27 µM (inactive) | 18.5 µM (inactive) | 21.1 µM (inactive) | 30.3 µM (inactive) | 18.1 µM (inactive) | 28.4 µM (inactive) | 9.04 µM (inactive) | 31 µM (inactive) | 3.65 µM (inactive) | 16.9 µM (inactive) | 16.8 µM (inactive) | 28.4 µM (inactive) | 22.7 µM (inactive) | 20.4 µM (inactive) | > 100 µM (inactive) | 1.66 µM (inactive) | – |
| CC1=C/C(=N\N(C)C)C(C(O)(C(F)(F)F)C(F)(F)F)C(C)(C)C1 (centres undefined) | > 100 µM (inactive) | – | 69.7 µM (inactive) | > 100 µM (inactive) | > 100 µM (inactive) | 46.8 µM (inactive) | > 100 µM (inactive) | > 100 µM (inactive) | > 100 µM (inactive) | > 100 µM (inactive) | > 100 µM (inactive) | > 100 µM (inactive) | 80.2 µM (inactive) | > 100 µM (inactive) | > 100 µM (inactive) | > 100 µM (inactive) | > 100 µM (inactive) | 97.1 µM (inactive) | > 100 µM (inactive) | > 100 µM (inactive) |
